Measurements: ChEMBL document CHEMBL1141751, “Latifolians A and B, novel JNK3 kinase inhibitors from the Papua New Guinean plant Gnetum latifolium” (J Nat Prod, 2005)

Target: Mitogen-activated protein kinase 10 (Homo sapiens, UniProt P53779)
Experiment: Inhibition of JNK3-induced transfer of [gamma33P]ATP to biotinylated ATF2 by scintillation proximity assay

Chain of Mitogen-activated protein kinase 10 (P53779 whole entry): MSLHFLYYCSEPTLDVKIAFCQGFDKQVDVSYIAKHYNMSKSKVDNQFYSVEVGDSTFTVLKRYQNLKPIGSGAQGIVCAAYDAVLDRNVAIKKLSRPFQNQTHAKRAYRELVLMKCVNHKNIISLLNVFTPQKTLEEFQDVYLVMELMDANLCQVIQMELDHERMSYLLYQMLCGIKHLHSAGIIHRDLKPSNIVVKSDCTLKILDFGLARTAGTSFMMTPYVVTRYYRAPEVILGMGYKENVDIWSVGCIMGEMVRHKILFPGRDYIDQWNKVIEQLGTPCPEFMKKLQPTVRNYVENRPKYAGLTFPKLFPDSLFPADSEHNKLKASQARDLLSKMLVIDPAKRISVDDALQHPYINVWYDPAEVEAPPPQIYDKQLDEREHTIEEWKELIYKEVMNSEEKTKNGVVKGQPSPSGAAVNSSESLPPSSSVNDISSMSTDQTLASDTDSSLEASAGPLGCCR

Row | IC50 | Compound
1 | 13 µM | Oc1cc2c(cc1O)[C@H]1Cc3cc(O)c(O)cc3[N@+]13CCc1cc(O)c(O)cc1[C@@H]3C2 [LATIFOLIAN A]
2 | 10 µM | COc1cc2c(cc1O)C[C@@H]1c3cc(O)c(O)cc3C[C@H]3c4cc(O)c(O)cc4CC[N@@+]213 [LATIFOLIAN B]
